Assay [1] has as its system retinal pigment epithelial cell line ARPE-19. Put plainly: Reduction of reactive oxygen species (DCF-DA fluorescence microscopy) in H2O2-treated retinal pigment epithelial cells. Type of assay: cell-based. To be noted: ARPE-19, H2O2 50 µM; metformin 1 mM (positive control). The text has this:
(§1) Reactive oxygen species were generated by treating retinal pigment epithelial cell line ARPE-19 with hydrogen peroxide (H2O2).

In assay [2] the test system is mouse model of age-related macular degeneration. Put plainly: Short-term administration in NaIO3 mouse model of age-related macular degeneration (phalloidin-stained RPE/choroid flat mount). Type of assay: in vivo, C57BL/6 mice. To be noted: NaIO3 20 mg/kg IV; metformin 4 mg/mL in drinking water for 7 days before NaIO3. The text has this: Mice injected with sodium iodate (NaIO3) are used as a representative model of age-related macular degeneration. A mouse model of age-related macular degeneration was established by injecting NaIO3 into C57BL/6 mice, thereby inducing oxidative stress specific to retinal pigment epithelial cells and causing damage.

For assay [3], the system named is retinal pigment epithelial cell line ARPE-19. Put plainly: Epithelial-mesenchymal transition (cadherin 1 / vimentin, confocal microscopy) in H2O2-treated retinal pigment epithelial cells. To be noted: ARPE-19, H2O2 50 µM; metformin 1 mM (positive control). The class given is cell-based.
From the text: as §1

Molecules are shown by their SMILES.

This is an account of results in EP4714462A1, “COMPOSITION COMPRISING GV1001 FOR PREVENTING OR TREATING MACULAR DEGENERATION” (Gemvax & Kael Co., Ltd., priority 2023, dated 2024).

In the case of `CN(C)C(=N)N=C(N)N` [metformin], the DCF-DA fluorescence intensity entry in assay [1] is listed as “decreased”. Besides, the tight junction structure entry in assay [2] was “maintained”. Also, the epithelial-mesenchymal transition result in assay [3] was “reduced”.
